Measured values: patent publication US11999716B2, “WDR5 inhibitors and modulators” (priority 2018, dated 2024)

Tested on: MV4:11 human cancer cell lines
Assay: Cellular viability / anti-proliferative activity, CellTiter-Glo, 5 day protocol
Type: cell-based
Conditions: Homo sapiens, MV4-11, 120 h, MV4:11 cells; 5 day incubation; CellTiter-Glo; mean of minimum two replicates; read-out: GI50 on cellular proliferation of MV4:11 human cancer cell lines
How it was run: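 Cells seeded at 200 per well (7200 cells/mL) with compound in 2-fold serial dilutions from 30 μM top (22 points), 0.3% DMSO final. Viability read by CellTiter-Glo luminescence after 5 days; GI50 from sigmoidal dose-response fit, mean of at least two replicates.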

| GI50 | SMILES |
| --- | --- |
| 57 nM | CCc1nccn1Cc1cc2c(c(-c3cn(C)nc3C(F)(F)F)c1)CCN([C@@H](C)c1cc(C)cc(C)n1)C2=O [Example 164, (S)-2-(1-(4,6-Dimethylpyridin-2-yl)ethyl)-7-((2-ethyl-1H-imidazol-1-yl)methyl)-5-(1-methyl-3-(trifluoromethyl)-1H-pyrazol-4-yl)-3,4-dihydroisoquinolin-1(2H)-one] |
| < 50 nM | Cc1cc(C)nc([C@H](C)N2CCc3c(cc(Cn4ccnc4C)cc3-c3cn(C)nc3C(F)(F)F)C2=O)c1 [Example 165, (S)-2-(1-(4,6-Dimethylpyridin-2-yl)ethyl)-7-((2-methyl-1H-imidazol-1-yl)methyl)-5-(1-methyl-3-(trifluoromethyl)-1H-pyrazol-4-yl)-3,4-dihydroisoquinolin-1(2H)-one] |
| 89 nM | Cc1cc(C)nc([C@@H](C)N2CCc3c(cc(Cn4ccnc4C)cc3-c3cn(C)nc3C(F)(F)F)C2=O)c1 [Example 166, (R)-2-(1-(4,6-Dimethylpyridin-2-yl)ethyl)-7-((2-methyl-1H-imidazol-1-yl)methyl)-5-(1-methyl-3-(trifluoromethyl)-1H-pyrazol-4-yl)-3,4-dihydroisoquinolin-1(2H)-one] |
| 3020 nM | Cc1nccn1Cc1cc2c(c(-c3cn(C)nc3C(F)(F)F)c1)CCN(CC1CCCOC1)C2=O (centres unmarked) [Example 167, 7-((2-Methyl-1H-imidazol-1-yl)methyl)-5-(1-methyl-3-(trifluoromethyl)-1H-pyrazol-4-yl)-2-((tetrahydro-2H-pyran-3-yl)methyl)-3,4-dihydroisoquinolin-1(2H)-one] |
| < 50 nM | COc1ccnc([C@H](C)N2CCc3c(cc(Cn4ccnc4C)cc3-c3ccc(F)cc3C)C2=O)c1 [Example 168, (S)-5-(4-Fluoro-2-methylphenyl)-2-(1-(4-methoxypyridin-2-yl)ethyl)-7-((2-methyl-1H-imidazol-1-yl)methyl)-3,4-dihydroisoquinolin-1(2H)-one] |
| 2000 nM | Cc1nccn1Cc1cc2c(c(-c3cn(C)nc3C(F)(F)F)c1)CCN(CC1CCCCO1)C2=O (centres unmarked) [Example 169, 7-((2-Methyl-1H-imidazol-1-yl)methyl)-5-(1-methyl-3-(trifluoromethyl)-1H-pyrazol-4-yl)-2-((tetrahydro-2H-pyran-2-yl)methyl)-3,4-dihydroisoquinolin-1(2H)-one] |
| 835 nM | Cc1nccn1Cc1cc2c(c(-c3cn(C)nc3C(F)(F)F)c1)CCN(Cc1ccc3c(c1)OCO3)C2=O [Example 170, 2-(Benzo[d][1,3]dioxol-5-ylmethyl)-7-((2-methyl-1H-imidazol-1-yl)methyl)-5-(1-methyl-3-(trifluoromethyl)-1H-pyrazol-4-yl)-3,4-dihydroisoquinolin-1(2H)-one] |
| 6900 nM | Cc1nccn1Cc1cc2c(c(-c3cn(C)nc3C(F)(F)F)c1)CCN(CC1CCCCN1C)C2=O (centres unmarked) [Example 171, 7-((2-Methyl-1H-imidazol-1-yl)methyl)-5-(1-methyl-3-(trifluoromethyl)-1H-pyrazol-4-yl)-2-((1-methylpiperidin-2-yl)methyl)-3,4-dihydroisoquinolin-1(2H)-one] |
| 221 nM | Cc1nccn1Cc1cc2c(c(-c3cn(C)nc3C(F)(F)F)c1)CCN(CC1CCC(=O)N(C)C1)C2=O (centres unmarked) [Example 172, 7-((2-Methyl-1H-imidazol-1-yl)methyl)-5-(1-methyl-3-(trifluoromethyl)-1H-pyrazol-4-yl)-2-((1-methyl-6-oxopiperidin-3-yl)methyl)-3,4-dihydroisoquinolin-1(2H)-one] |
| 3910 nM | Cc1nccn1Cc1cc2c(c(-c3cn(C)nc3C(F)(F)F)c1)CCN(CC1CCOCC1)C2=O [Example 173, 7-((2-Methyl-1H-imidazol-1-yl)methyl)-5-(1-methyl-3-(trifluoromethyl)-1H-pyrazol-4-yl)-2-((tetrahydro-2H-pyran-4-yl)methyl)-3,4-dihydroisoquinolin-1(2H)-one] |
| 329 nM | Cc1nnc(CN2CCc3c(cc(Cn4ccnc4C)cc3-c3cn(C)nc3C(F)(F)F)C2=O)s1 [Example 174, 2-((5-Methyl-1,3,4-thiadiazol-2-yl)methyl)-7-((2-methyl-1H-imidazol-1-yl)methyl)-5-(1-methyl-3-(trifluoromethyl)-1H-pyrazol-4-yl)-3,4-dihydroisoquinolin-1(2H)-one] |
| < 50 nM | CCc1ccnc([C@H](C)N2CCc3c(cc(Cn4ccnc4C)cc3-c3cn(C)nc3C(F)(F)F)C2=O)c1 [Example 175, (S)-2-(1-(4-Ethylpyridin-2-yl)ethyl)-7-((2-methyl-1H-imidazol-1-yl)methyl)-5-(1-methyl-3-(trifluoromethyl)-1H-pyrazol-4-yl)-3,4-dihydroisoquinolin-1(2H)-one] |
| 293 nM | Cc1nccn1Cc1cc2c(c(-c3cn(C)nc3C(F)(F)F)c1)CCN(Cc1ccc3ccccc3n1)C2=O [Example 176, 7-((2-Methyl-1H-imidazol-1-yl)methyl)-5-(1-methyl-3-(trifluoromethyl)-1H-pyrazol-4-yl)-2-(quinolin-2-ylmethyl)-3,4-dihydroisoquinolin-1(2H)-one] |
| < 50 nM | CCn1cc(-c2cc(Cn3ccnc3C)cc3c2CCN([C@H](c2cc(C)ccn2)C2CC2)C3=O)c(C(F)(F)F)n1 [Example 177, (S)-2-(Cyclopropyl(4-methylpyridin-2-yl)methyl)-5-(1-ethyl-3-(trifluoromethyl)-1H-pyrazol-4-yl)-7-((2-methyl-1H-imidazol-1-yl)methyl)-3,4-dihydroisoquinolin-1(2H)-one] |
| 152 nM | CCn1cc(-c2cc(Cn3cnc(C)c3C)cc3c2CCN([C@@H](C)c2cc(OC)ccn2)C3=O)c(C(F)(F)F)n1 [Example 178, (S)-7-((4,5-Dimethyl-1H-imidazol-1-yl)methyl)-5-(1-ethyl-3-(trifluoromethyl)-1H-pyrazol-4-yl)-2-(1-(4-methoxypyridin-2-yl)ethyl)-3,4-dihydroisoquinolin-1(2H)-one] |
| 9640 nM | CCn1cc(-c2cc(Cn3ccnc3C#N)cc3c2CCN([C@@H](C)c2cc(OC)ccn2)C3=O)c(C(F)(F)F)n1 [Example 179] |
| 1590 nM | Cc1nccn1Cc1cc2c(c(-c3cn(C)nc3C(F)(F)F)c1)CCN(Cc1ccccn1)C2=O [Example 180, 7-((2-Methyl-1H-imidazol-1-yl)methyl)-5-(1-methyl-3-(trifluoromethyl)-1H-pyrazol-4-yl)-2-(pyridin-2-ylmethyl)-3,4-dihydroisoquinolin-1(2H)-one] |
| 3460 nM | Cc1cccnc1CN1CCc2c(cc(Cn3ccnc3C)cc2-c2cn(C)nc2C(F)(F)F)C1=O [Example 181, 7-((2-Methyl-1H-imidazol-1-yl)methyl)-5-(1-methyl-3-(trifluoromethyl)-1H-pyrazol-4-yl)-2-((3-methylpyridin-2-yl)methyl)-3,4-dihydroisoquinolin-1(2H)-one] |
| 125 nM | Cc1ccnc([C@H](C2CC2)N2CCc3c(cc(Cn4ccnc4)cc3-c3ccc(F)cc3C)C2=O)c1 [Example 184, (S)-7-((1H-Imidazol-1-yl)methyl)-2-(cyclopropyl(4-methylpyridin-2-yl)methyl)-5-(4-fluoro-2-methylphenyl)-3,4-dihydroisoquinolin-1(2H)-one] |
| < 50 nM | Cc1cc([C@H](C)N2CCc3c(cc(Cn4ccnc4)cc3-c3cn(C)nc3C(F)(F)F)C2=O)ncc1F [Example 185, (S)-7-((1H-Imidazol-1-yl)methyl)-2-(1-(5-fluoro-4-methylpyridin-2-yl)ethyl)-5-(1-methyl-3-(trifluoromethyl)-1H-pyrazol-4-yl)-3,4-dihydroisoquinolin-1(2H)-one] |
